Data taken from patent publication EP0346187B1, “Novel GTP binding protein and method for production thereof” (MITSUBISHI KASEI CORPORATION, priority 1988, dated 1989).

Key:
[1] = target: T1, G protein (Smg p21), molecular weight of 22,000, purified from bovine brain (Bos taurus, UniProt P62833); assay: GTP binding activity of purified G protein (Smg p21)
T1 construct: a crude membrane fraction was extracted with sodium cholate from bovine brain; from tissue; host or cells: bovine brain (crude membrane fraction, cholate extract)
T1 sequence (P62833 1-181 limits assumed): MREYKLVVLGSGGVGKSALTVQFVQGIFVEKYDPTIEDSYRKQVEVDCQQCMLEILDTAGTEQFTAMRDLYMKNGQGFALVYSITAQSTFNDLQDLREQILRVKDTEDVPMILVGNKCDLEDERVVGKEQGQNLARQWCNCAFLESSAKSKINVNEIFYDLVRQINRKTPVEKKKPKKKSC
From the text: (§1) • (a) Crude G protein with molecular weight (relative molecular weight : Mr) of 20,000 to 25,000 was obtained in accordance with the method of Kikuchi, et al. (Journal of the Biological Chemistry, 263, p 2897 - 2904, 1988). Specifically, a crude membrane fraction was extracted with sodium cholate from bovine brain, and the fraction was fractionated on Ultrogel AcA-44 column chromatography to separate and obtain a fraction at the second peak among two peaks showing GTP binding activity. The fraction thus obtained was purified on phenyl Sepharose CL-4B column chromatography and then further fractionated on hydroxyapatite column chromatography to separate and obtain a fraction at the first peak. Then, the first peak fraction was fractionated on Mono Q HR 5/5 column chromatography and the fraction at the first peak was separated and collected to obtain a crude G protein with Mr of 20,000 - 25,000. • (b) The crude G protein obtained in (a) above was subjected to Mono S HR 5/5 column chromatography equilibrated with a buffer solution of 50 mM sodium acetate (pH, 5.0) containing 1 mM EDTA, 1mM dithiothreitol, 5 mM magnesium chloride and 0.6 % CHAPS (3- [(3-cholamidopropyl) dimethylammonio]-1-propane sulfonate). After washing with 5 ml of the same buffer solution, it was eluted out by the same buffer solution (20 ml) with a concentration gradient of sodium chloride (0 - 1.0 M). […]

[2] = target: T1, G protein (Smg p21), molecular weight of 22,000, purified from bovine brain; assay: GTP hydrolyzing activity of purified G protein (Smg p21); type: biochemical
From the text: as §1

Kd ([1]; purified G protein (Smg p21) from bovine brain) [µM]	GTP Hydrolyzing Activity (number of turnovers) [2] [min⁻¹]	SMILES	Effect of N-ethylmaleimide on GTP Binding Activity ([1]; no concentration stated, presence of dithiothreitol blocks the inhibition)
0.03 ± 0.006	0.005	Nc1nc2c(ncn2[C@@H]2O[C@H](COP(=O)(O)OP(=O)(O)OP(=O)(O)O)[C@@H](O)[C@H]2O)c(=O)[nH]1 [GTP, guanosine-5-triphosphate]	
		CCN1C(=O)C=CC1=O [N-ethylmaleimide]	inhibited
